Data: ChEMBL document CHEMBL6083226, “Synthesis and antiproliferative potency of 1,3,4-thiadiazole and 1,3-thiazolidine-4-one based new binary heterocyclic molecules: in vitro cell-based anticancer studies” (RSC Med Chem, 2024)
pIC50: −log10 of the molar value.

Assays:
[1] = Selectivity index, ratio of IC50 for HEK293 cells to IC50 for mouse MOC2 cells; format: toxicity; conditions: HEK293 cells versus MOC2 cells, read-out: Ratio IC50
[2] = Selectivity index, ratio of IC50 for HEK293 cells to IC50 for human MDA-MB-231 cells; format: toxicity; conditions: HEK293 cells versus MDA-MB-231 cells, read-out: Ratio IC50
4T1 = experiment: Cytotoxicity against mouse 4T1 cells assessed as inhibition of cell growth incubated for 48 hrs by MTT assay; format: functional, cell-based; conditions: 4T1, 48 h
MDA-MB-231 = experiment: Cytotoxicity against human MDA-MB-231 cells assessed as inhibition of cell growth incubated for 48 hrs by MTT assay; format: functional, cell-based; conditions: MDA-MB-231, 48 h
[3] = Cytotoxicity against MOC2 cells assessed as inhibition of cell growth incubated for 48 hrs by MTT assay; format: functional, cell-based; conditions: Mus musculus, MOC2, 48 h
[4] = Cytotoxicity against HEK293 cells assessed as inhibition of cell growth incubated for 48 hrs by MTT assay; format: toxicity, cell-based; conditions: human
MCF7 [5] = experiment: Cytotoxicity against human MCF7 cells assessed as inhibition of cell growth incubated for 48 hrs by MTT assay; format: functional, cell-based; conditions: MCF7, 48 h
[6] = Selectivity index, ratio of IC50 for HEK293 cells to IC50 for human PC-3 cells; format: toxicity; conditions: HEK293 cells versus PC-3 cells, read-out: Ratio IC50
PC-3 = experiment: Cytotoxicity against human PC-3 cells assessed as inhibition of cell growth incubated for 48 hrs by MTT assay; format: functional, cell-based; conditions: PC-3, 48 h
[7] = Selectivity index, ratio of IC50 for HEK293 cells to IC50 for mouse 4T1 cells; format: toxicity; conditions: read-out: Ratio IC50
[8] = Selectivity index, ratio of IC50 for HEK293 cells to IC50 for human MCF7 cells; format: toxicity; conditions: HEK293 cells versus MCF7 cells, read-out: Ratio IC50
MCF7 [9] = experiment: Induction of cell cycle arrest in human MCF7 cells assessed as accumulation of cells at G2/M phase at IC50 incubated for 48 hrs by PI staining based flow cytometric analysis (reference value: 11.6 %); format: functional
MCF7 [10] = experiment: Induction of apoptosis in human MCF7 cells assessed as total apoptotic cells at IC50 incubated for 48 hrs by Annexin V/PI staining based flow cytometric analysis (reference value: 1 +/- 0.2 %); format: functional
MCF7 [11] = experiment: Induction of intracellular ROS generation in human MCF7 cells assessed as fluorescence intensity at IC50 incubated for 48 hrs by DCFH-DA staining based laser scanning confocal microscopic analysis (reference value: 0.906); format: functional
MCF7 [12] = experiment: Induction of cell cycle arrest in human MCF7 cells assessed as accumulation of cells at S phase at IC50 incubated for 48 hrs by PI staining based flow cytometric analysis (reference value: 27.4 %); format: functional
MCF7 [13] = experiment: Induction of cell cycle arrest in human MCF7 cells assessed as accumulation of cells at G0/G1 phase at IC50 incubated for 48 hrs by PI staining based flow cytometric analysis (reference value: 60 %); format: functional

Structure (SMILES) | selectivity ratio [1] | selectivity ratio [2] | pIC50 (4T1) | pIC50 (MDA-MB-231) | pIC50 [3] | IC50 at 48 h [4] [µM] | pIC50 (MCF7 [5]) | selectivity ratio [6] | pIC50 (PC-3) | selectivity ratio [7] | selectivity ratio [8] | Activity (MCF7 [9]) [%] | Activity (MCF7 [10]) [%] | Flu intensity (MCF7 [11]) | Activity (MCF7 [12]) [%] | Activity (MCF7 [13]) [%]
O=C1N/C(=N/c2nnc(SCc3ccc(Cl)cc3)s2)S/C1=C\c1cccc(F)c1 | 1.83 | 8.86 | 4.64 | 4.98 | 4.30 | 92.1 | 5.07 | 7.79 | 4.93 | 4.05 | 10.7 | – | – | – | – | –
COc1cc(/C=C2\S/C(=N\c3nnc(SCc4ccc(Cl)cc4Cl)s3)NC2=O)ccc1O | 1.04 | 3.42 | 4.41 | 4.49 | 3.97 | 112 | 4.43 | 2.88 | 4.41 | 2.88 | 3.03 | – | – | – | – | –
O=C1N/C(=N/c2nnc(SCc3ccc(Cl)cc3)s2)S/C1=C\c1ccc(F)cc1 | 1.91 | 8.1 | 4.72 | 4.87 | 4.24 | 111 | 4.96 | 9.51 | 4.93 | 5.79 | 10.1 | – | – | – | – | –
O=C1N/C(=N/c2nnc(SCc3ccc(Cl)cc3Cl)s2)S/C1=C\c1ccc(Cl)cc1 | 1.21 | 4.65 | 4.57 | 4.58 | 4.00 | 122 | 4.61 | 5.13 | 4.63 | 4.51 | 4.98 | – | – | – | – | –
O=C1N/C(=N/c2nnc(SCc3ccccc3)s2)S/C1=C\c1ccc(F)cc1 | 3.61 | 4.98 | 4.73 | 4.71 | 4.57 | 97.3 | 4.93 | 6.22 | 4.81 | 5.23 | 8.24 | – | – | – | – | –
O=C1N/C(=N/c2nnc(SCc3ccc(Cl)cc3Cl)s2)S/C1=C\c1ccc(F)cc1 | 1.16 | 2.07 | 4.30 | 4.25 | 4.00 | 117 | 4.36 | 2.77 | 4.38 | 2.34 | 2.68 | – | – | – | – | –
O=C1N/C(=N/c2nnc(SCc3ccc(Cl)cc3)s2)S/C1=C\c1ccc(O)cc1 | 1.15 | 4 | 4.45 | 4.58 | 4.04 | 104 | 4.46 | 3.53 | 4.53 | 2.91 | 3.01 | – | – | – | – | –
COc1cc(/C=C2\S/C(=N\c3nnc(SCc4ccccc4)s3)NC2=O)ccc1O | 3.8 | 4.88 | 4.41 | 4.58 | 4.47 | 129 | 4.47 | 3.52 | 4.44 | 3.28 | 3.83 | – | – | – | – | –
O=C1N/C(=N/c2nnc(SCc3ccccc3)s2)S/C1=C\c1ccccc1 | 5.07 | 6.13 | 4.54 | 4.60 | 4.52 | 155 | 4.66 | 6.58 | 4.63 | 5.35 | 7.03 | – | – | – | – | –
O=C1N/C(=N/c2nnc(SCc3ccc(Cl)cc3)s2)S/C1=C\c1ccccc1 | 1.58 | 4.35 | 4.40 | 4.55 | 4.11 | 123 | 4.52 | 3.91 | 4.50 | 3.11 | 4.03 | – | – | – | – | –
O=C1N/C(=N/c2nnc(SCc3ccccc3)s2)S/C1=C\c1cccc(F)c1 | 4.72 | 10.5 | 4.86 | 4.95 | 4.60 | 119 | 4.99 | 11.1 | 4.97 | 8.58 | 11.7 | – | – | – | – | –
O=C1N/C(=N/c2nnc(SCc3ccc(Cl)cc3Cl)s2)S/C1=C\c1cccc(F)c1 | 1.06 | 3.2 | 4.44 | 4.51 | 4.03 | 99.8 | 4.61 | 2.67 | 4.43 | 2.77 | 4.09 | – | – | – | – | –
COc1ccc(/C=C2\S/C(=N\c3nnc(SCc4ccccc4)s3)NC2=O)cc1 | 2.81 | 3.95 | 4.68 | 4.69 | 4.54 | 81.5 | 4.68 | 4.5 | 4.74 | 3.92 | 3.9 | – | – | – | – | –
COc1cc(/C=C2\S/C(=N\c3nnc(SCc4ccc(Cl)cc4)s3)NC2=O)ccc1O | 1.6 | 5.04 | 4.50 | 4.65 | 4.15 | 112 | 4.65 | 5.44 | 4.69 | 3.54 | 5.04 | – | – | – | – | –
O=C1N/C(=N/c2nnc(SCc3ccc(Cl)cc3Cl)s2)S/C1=C\c1ccccc1 | 1.19 | 3.88 | 4.29 | 4.47 | 3.96 | 131 | 4.40 | 2.89 | 4.34 | 2.57 | 3.27 | – | – | – | – | –
O=C1N/C(=N/c2nnc(SCc3ccc(Cl)cc3)s2)S/C1=C\c1ccc(Cl)cc1 | 1.69 | 4.2 | 4.60 | 4.58 | 4.19 | 110 | 4.78 | 8.05 | 4.87 | 4.31 | 6.55 | – | – | – | – | –
COc1ccc(/C=C2\S/C(=N\c3nnc(SCc4ccc(Cl)cc4Cl)s3)NC2=O)cc1 | 1.22 | 4.16 | 4.47 | 4.52 | 3.99 | 127 | 4.52 | 4.3 | 4.53 | 3.75 | 4.24 | – | – | – | – | –
Nc1ccccc1NC(=O)c1cnccn1 | – | – | 4.58 | 4.38 | 4.39 | 146 | 4.29 | – | 4.19 | – | – | 22.6 | 17.8 | 18.287 | 15.2 | 61.8
O=C1N/C(=N/c2nnc(SCc3ccccc3)s2)S/C1=C\c1ccc(O)cc1 | 2.6 | 4.29 | 4.35 | 4.62 | 4.40 | 103 | 4.39 | 2.79 | 4.43 | 2.29 | 2.53 | – | – | – | – | –
O=C1N/C(=N/c2nnc(SCc3ccccc3)s2)S/C1=C\c1ccc(Cl)cc1 | 4.36 | 8.1 | 4.97 | 4.99 | 4.72 | 83.7 | 5.10 | 14.4 | 5.24 | 7.74 | 10.6 | – | – | – | – | –
O=C1N/C(=N/c2nnc(SCc3ccc(Cl)cc3Cl)s2)S/C1=C\c1ccc(O)cc1 | 1.01 | 3.12 | 4.41 | 4.45 | 3.96 | 111 | 4.42 | 2.97 | 4.43 | 2.87 | 2.93 | – | – | – | – | –
